Measurements as given in the OligoGym collection.
Oligonucleotides are given in HELM: sugar(base)linkage, 5' to 3'; d 2'-deoxyribose, r ribose, m 2'-O-methylribose, p phosphate. ss, as = sense and antisense strand
Also: test concentration or dose not given here.

The substances below were run against UBE2N (assay: reporter assay of Huesken 2005). Conditions: siRNA.
Substance “RNA1{r(U)p.r(U)p.r(U)p.r(C)p.r(A)p.r(U)p.r(G)p.r(U)p.r(G)p.r(G)p.r(U)p.r(C)p.r(A)p.r(U)p.r(U)p.r(G)p.r(C)p.r(U)p.r(G)p.d(T)p.d(T)}|RNA2{r(C)p.r(A)p.r(G)p.r(C)p.r(A)p.r(A)p.r(U)p.r(G)p.r(A)p.r(C)p.r(C)p.r(A)p.r(C)p.r(A)p.r(U)p.r(G)p.r(A)p.r(A)p.r(A)p.d(A)p.d(T)}$$$RNA1{StrandType:ss}|RNA2{StrandType:as}$” has a normalised inhibition (eCFP-eYFP dual reporter) of 39.8%.
In the case of “RNA1{r(U)p.r(G)p.r(A)p.r(U)p.r(C)p.r(C)p.r(A)p.r(U)p.r(U)p.r(A)p.r(G)p.r(C)p.r(A)p.r(A)p.r(A)p.r(U)p.r(G)p.r(A)p.r(U)p.d(T)p.d(T)}|RNA2{r(A)p.r(U)p.r(C)p.r(A)p.r(U)p.r(U)p.r(U)p.r(G)p.r(C)p.r(U)p.r(A)p.r(A)p.r(U)p.r(G)p.r(G)p.r(A)p.r(U)p.r(C)p.r(A)p.d(T)p.d(C)}$$$RNA1{StrandType:ss}|RNA2{StrandType:as}$”, the normalised inhibition (eCFP-eYFP dual reporter) is reported as 70.2%.
With “RNA1{r(A)p.r(A)p.r(U)p.r(G)p.r(U)p.r(A)p.r(G)p.r(A)p.r(C)p.r(A)p.r(A)p.r(G)p.r(U)p.r(U)p.r(G)p.r(G)p.r(G)p.r(A)p.r(A)p.d(T)p.d(T)}|RNA2{r(U)p.r(U)p.r(C)p.r(C)p.r(C)p.r(A)p.r(A)p.r(C)p.r(U)p.r(U)p.r(G)p.r(U)p.r(C)p.r(U)p.r(A)p.r(C)p.r(A)p.r(U)p.r(U)p.d(A)p.d(G)}$$$RNA1{StrandType:ss}|RNA2{StrandType:as}$” the normalised inhibition (eCFP-eYFP dual reporter) was 93.8%.
In the case of “RNA1{r(U)p.r(C)p.r(C)p.r(G)p.r(C)p.r(A)p.r(C)p.r(A)p.r(G)p.r(U)p.r(U)p.r(C)p.r(U)p.r(G)p.r(C)p.r(U)p.r(A)p.r(U)p.r(C)p.d(T)p.d(T)}|RNA2{r(G)p.r(A)p.r(U)p.r(A)p.r(G)p.r(C)p.r(A)p.r(G)p.r(A)p.r(A)p.r(C)p.r(U)p.r(G)p.r(U)p.r(G)p.r(C)p.r(G)p.r(G)p.r(A)p.d(T)p.d(C)}$$$RNA1{StrandType:ss}|RNA2{StrandType:as}$”, the normalised inhibition (eCFP-eYFP dual reporter) is reported as 63.5%.
Work on “RNA1{r(A)p.r(G)p.r(A)p.r(A)p.r(C)p.r(C)p.r(A)p.r(G)p.r(U)p.r(U)p.r(C)p.r(C)p.r(U)p.r(G)p.r(G)p.r(C)p.r(A)p.r(U)p.r(C)p.d(T)p.d(T)}|RNA2{r(G)p.r(A)p.r(U)p.r(G)p.r(C)p.r(C)p.r(A)p.r(G)p.r(G)p.r(A)p.r(A)p.r(C)p.r(U)p.r(G)p.r(G)p.r(U)p.r(U)p.r(C)p.r(U)p.d(G)p.d(C)}$$$RNA1{StrandType:ss}|RNA2{StrandType:as}$” yielded a normalised inhibition (eCFP-eYFP dual reporter) of 60.7%.
Substance “RNA1{r(C)p.r(G)p.r(U)p.r(U)p.r(U)p.r(C)p.r(A)p.r(U)p.r(G)p.r(A)p.r(C)p.r(C)p.r(A)p.r(A)p.r(A)p.r(A)p.r(U)p.r(U)p.r(U)p.d(T)p.d(T)}|RNA2{r(A)p.r(A)p.r(A)p.r(U)p.r(U)p.r(U)p.r(U)p.r(G)p.r(G)p.r(U)p.r(C)p.r(A)p.r(U)p.r(G)p.r(A)p.r(A)p.r(A)p.r(C)p.r(G)p.d(T)p.d(A)}$$$RNA1{StrandType:ss}|RNA2{StrandType:as}$” has a normalised inhibition (eCFP-eYFP dual reporter) of 100%.
In the case of “RNA1{r(A)p.r(G)p.r(C)p.r(C)p.r(C)p.r(A)p.r(A)p.r(G)p.r(C)p.r(C)p.r(A)p.r(U)p.r(A)p.r(G)p.r(A)p.r(A)p.r(A)p.r(C)p.r(A)p.d(T)p.d(T)}|RNA2{r(U)p.r(G)p.r(U)p.r(U)p.r(U)p.r(C)p.r(U)p.r(A)p.r(U)p.r(G)p.r(G)p.r(C)p.r(U)p.r(U)p.r(G)p.r(G)p.r(G)p.r(C)p.r(U)p.d(T)p.d(C)}$$$RNA1{StrandType:ss}|RNA2{StrandType:as}$”, the normalised inhibition (eCFP-eYFP dual reporter) is reported as 91.7%.
“RNA1{r(U)p.r(U)p.r(G)p.r(C)p.r(U)p.r(G)p.r(G)p.r(C)p.r(C)p.r(C)p.r(U)p.r(C)p.r(A)p.r(G)p.r(G)p.r(A)p.r(U)p.r(U)p.r(C)p.d(T)p.d(T)}|RNA2{r(G)p.r(A)p.r(A)p.r(U)p.r(C)p.r(C)p.r(U)p.r(G)p.r(A)p.r(G)p.r(G)p.r(G)p.r(C)p.r(C)p.r(A)p.r(G)p.r(C)p.r(A)p.r(A)p.d(T)p.d(G)}$$$RNA1{StrandType:ss}|RNA2{StrandType:as}$” was tested, and the normalised inhibition (eCFP-eYFP dual reporter) was 50.2%.
In the case of “RNA1{r(G)p.r(U)p.r(U)p.r(C)p.r(C)p.r(U)p.r(G)p.r(G)p.r(C)p.r(A)p.r(U)p.r(C)p.r(A)p.r(A)p.r(A)p.r(G)p.r(C)p.r(C)p.r(G)p.d(T)p.d(T)}|RNA2{r(C)p.r(G)p.r(G)p.r(C)p.r(U)p.r(U)p.r(U)p.r(G)p.r(A)p.r(U)p.r(G)p.r(C)p.r(C)p.r(A)p.r(G)p.r(G)p.r(A)p.r(A)p.r(C)p.d(T)p.d(G)}$$$RNA1{StrandType:ss}|RNA2{StrandType:as}$”, the normalised inhibition (eCFP-eYFP dual reporter) is reported as 78.2%.
“RNA1{r(A)p.r(C)p.r(G)p.r(C)p.r(C)p.r(C)p.r(G)p.r(U)p.r(U)p.r(A)p.r(U)p.r(U)p.r(U)p.r(U)p.r(C)p.r(A)p.r(U)p.r(G)p.r(U)p.d(T)p.d(T)}|RNA2{r(A)p.r(C)p.r(A)p.r(U)p.r(G)p.r(A)p.r(A)p.r(A)p.r(A)p.r(U)p.r(A)p.r(A)p.r(C)p.r(G)p.r(G)p.r(G)p.r(C)p.r(G)p.r(U)p.d(T)p.d(G)}$$$RNA1{StrandType:ss}|RNA2{StrandType:as}$” gave a normalised inhibition (eCFP-eYFP dual reporter) of 62.4%.
With “RNA1{r(A)p.r(U)p.r(U)p.r(U)p.r(A)p.r(U)p.r(C)p.r(A)p.r(U)p.r(C)p.r(C)p.r(U)p.r(A)p.r(A)p.r(U)p.r(G)p.r(U)p.r(A)p.r(G)p.d(T)p.d(T)}|RNA2{r(C)p.r(U)p.r(A)p.r(C)p.r(A)p.r(U)p.r(U)p.r(A)p.r(G)p.r(G)p.r(A)p.r(U)p.r(G)p.r(A)p.r(U)p.r(A)p.r(A)p.r(A)p.r(U)p.d(T)p.d(T)}$$$RNA1{StrandType:ss}|RNA2{StrandType:as}$” the normalised inhibition (eCFP-eYFP dual reporter) was 49.2%.
Work on “RNA1{r(A)p.r(G)p.r(C)p.r(G)p.r(G)p.r(A)p.r(G)p.r(C)p.r(A)p.r(G)p.r(U)p.r(G)p.r(G)p.r(A)p.r(A)p.r(G)p.r(A)p.r(C)p.r(C)p.d(T)p.d(T)}|RNA2{r(G)p.r(G)p.r(U)p.r(C)p.r(U)p.r(U)p.r(C)p.r(C)p.r(A)p.r(C)p.r(U)p.r(G)p.r(C)p.r(U)p.r(C)p.r(C)p.r(G)p.r(C)p.r(U)p.d(A)p.d(C)}$$$RNA1{StrandType:ss}|RNA2{StrandType:as}$” yielded a normalised inhibition (eCFP-eYFP dual reporter) of 43.9%.
“RNA1{r(G)p.r(U)p.r(G)p.r(G)p.r(U)p.r(C)p.r(C)p.r(C)p.r(C)p.r(A)p.r(G)p.r(C)p.r(A)p.r(C)p.r(U)p.r(G)p.r(C)p.r(A)p.r(G)p.d(T)p.d(T)}|RNA2{r(C)p.r(U)p.r(G)p.r(C)p.r(A)p.r(G)p.r(U)p.r(G)p.r(C)p.r(U)p.r(G)p.r(G)p.r(G)p.r(G)p.r(A)p.r(C)p.r(C)p.r(A)p.r(C)p.d(T)p.d(T)}$$$RNA1{StrandType:ss}|RNA2{StrandType:as}$” was tested, and the normalised inhibition (eCFP-eYFP dual reporter) was 59.4%.
“RNA1{r(C)p.r(C)p.r(C)p.r(A)p.r(A)p.r(G)p.r(C)p.r(C)p.r(A)p.r(U)p.r(A)p.r(G)p.r(A)p.r(A)p.r(A)p.r(C)p.r(A)p.r(G)p.r(C)p.d(T)p.d(T)}|RNA2{r(G)p.r(C)p.r(U)p.r(G)p.r(U)p.r(U)p.r(U)p.r(C)p.r(U)p.r(A)p.r(U)p.r(G)p.r(G)p.r(C)p.r(U)p.r(U)p.r(G)p.r(G)p.r(G)p.d(C)p.d(T)}$$$RNA1{StrandType:ss}|RNA2{StrandType:as}$” was tested, and the normalised inhibition (eCFP-eYFP dual reporter) was 60.2%.
With “RNA1{r(C)p.r(U)p.r(A)p.r(G)p.r(A)p.r(U)p.r(A)p.r(U)p.r(U)p.r(U)p.r(U)p.r(G)p.r(A)p.r(A)p.r(A)p.r(G)p.r(A)p.r(U)p.r(A)p.d(T)p.d(T)}|RNA2{r(U)p.r(A)p.r(U)p.r(C)p.r(U)p.r(U)p.r(U)p.r(C)p.r(A)p.r(A)p.r(A)p.r(A)p.r(U)p.r(A)p.r(U)p.r(C)p.r(U)p.r(A)p.r(G)p.d(A)p.d(C)}$$$RNA1{StrandType:ss}|RNA2{StrandType:as}$” the normalised inhibition (eCFP-eYFP dual reporter) was 85.6%.
Work on “RNA1{r(A)p.r(U)p.r(C)p.r(C)p.r(G)p.r(C)p.r(A)p.r(C)p.r(A)p.r(G)p.r(U)p.r(U)p.r(C)p.r(U)p.r(G)p.r(C)p.r(U)p.r(A)p.r(U)p.d(T)p.d(T)}|RNA2{r(A)p.r(U)p.r(A)p.r(G)p.r(C)p.r(A)p.r(G)p.r(A)p.r(A)p.r(C)p.r(U)p.r(G)p.r(U)p.r(G)p.r(C)p.r(G)p.r(G)p.r(A)p.r(U)p.d(C)p.d(T)}$$$RNA1{StrandType:ss}|RNA2{StrandType:as}$” yielded a normalised inhibition (eCFP-eYFP dual reporter) of 54.2%.
In the case of “RNA1{r(A)p.r(A)p.r(A)p.r(U)p.r(G)p.r(A)p.r(U)p.r(G)p.r(U)p.r(A)p.r(G)p.r(C)p.r(G)p.r(G)p.r(A)p.r(G)p.r(C)p.r(A)p.r(G)p.d(T)p.d(T)}|RNA2{r(C)p.r(U)p.r(G)p.r(C)p.r(U)p.r(C)p.r(C)p.r(G)p.r(C)p.r(U)p.r(A)p.r(C)p.r(A)p.r(U)p.r(C)p.r(A)p.r(U)p.r(U)p.r(U)p.d(G)p.d(C)}$$$RNA1{StrandType:ss}|RNA2{StrandType:as}$”, the normalised inhibition (eCFP-eYFP dual reporter) is reported as 43.2%.
“RNA1{r(C)p.r(A)p.r(A)p.r(A)p.r(U)p.r(G)p.r(A)p.r(U)p.r(G)p.r(U)p.r(A)p.r(G)p.r(C)p.r(G)p.r(G)p.r(A)p.r(G)p.r(C)p.r(A)p.d(T)p.d(T)}|RNA2{r(U)p.r(G)p.r(C)p.r(U)p.r(C)p.r(C)p.r(G)p.r(C)p.r(U)p.r(A)p.r(C)p.r(A)p.r(U)p.r(C)p.r(A)p.r(U)p.r(U)p.r(U)p.r(G)p.d(C)p.d(T)}$$$RNA1{StrandType:ss}|RNA2{StrandType:as}$” was tested, and the normalised inhibition (eCFP-eYFP dual reporter) was 64.2%.
Work on “RNA1{r(A)p.r(U)p.r(G)p.r(U)p.r(C)p.r(U)p.r(A)p.r(G)p.r(A)p.r(U)p.r(A)p.r(U)p.r(U)p.r(U)p.r(U)p.r(G)p.r(A)p.r(A)p.r(A)p.d(T)p.d(T)}|RNA2{r(U)p.r(U)p.r(U)p.r(C)p.r(A)p.r(A)p.r(A)p.r(A)p.r(U)p.r(A)p.r(U)p.r(C)p.r(U)p.r(A)p.r(G)p.r(A)p.r(C)p.r(A)p.r(U)p.d(A)p.d(T)}$$$RNA1{StrandType:ss}|RNA2{StrandType:as}$” yielded a normalised inhibition (eCFP-eYFP dual reporter) of 75.9%.
Substance “RNA1{r(U)p.r(A)p.r(G)p.r(C)p.r(G)p.r(G)p.r(A)p.r(G)p.r(C)p.r(A)p.r(G)p.r(U)p.r(G)p.r(G)p.r(A)p.r(A)p.r(G)p.r(A)p.r(C)p.d(T)p.d(T)}|RNA2{r(G)p.r(U)p.r(C)p.r(U)p.r(U)p.r(C)p.r(C)p.r(A)p.r(C)p.r(U)p.r(G)p.r(C)p.r(U)p.r(C)p.r(C)p.r(G)p.r(C)p.r(U)p.r(A)p.d(C)p.d(A)}$$$RNA1{StrandType:ss}|RNA2{StrandType:as}$” has a normalised inhibition (eCFP-eYFP dual reporter) of 40.2%.
